Source: ChEMBL document CHEMBL1201862, “PubChem BioAssay data set” (2004)
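Method: 48-hour compound exposure of cells in 96-well plates, five concentrations, linear interpolation of endpoints. Here, GI50 denotes the concentration required for 50% inhibition of growth.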 The source made the active and inactive calls. Rule as the data show it: active = GI50 up to about 1.1 µM and inactive = higher.

Assays:
Assay in all cases: inhibition of tumour cell growth, NCI panel, 48 h
[1] = test system: OVCAR-3
[2] = test system: SNB-19
[3] = test system: K562
[4] = test system: MDA-N
[5] = test system: NCI/ADR-RES
[6] = test system: SW-620
[7] = test system: NCI-H226
[8] = test system: MCF7
[9] = test system: OVCAR-5
[10] = test system: SN12C
[11] = test system: UACC-257
[12] = test system: U-251
[13] = test system: RXF 393
[14] = test system: NCI-H460
[15] = test system: HL-60
[16] = test system: MDA-MB-435
[17] = test system: CAKI-1
[18] = test system: UACC-62
[19] = test system: Hs-578T
[20] = test system: OVCAR-8
[21] = test system: IGROV-1
[22] = test system: A549
[23] = test system: ACHN
[24] = test system: UO-31
[25] = test system: Malme-3M
[26] = test system: HT-29
[27] = test system: M14
[28] = test system: RPMI-8226
[29] = test system: SK-OV-3
[30] = test system: PC-3
[31] = test system: 786-0
[32] = test system: TK-10
[33] = test system: NCI-H23
[34] = test system: COLO 205
[35] = test system: HCC 2998
[36] = test system: HCT-15
[37] = test system: HCT-116
[38] = test system: NCI-H522
[39] = test system: SF-539
[40] = test system: A498
[41] = test system: SR
[42] = test system: SNB-75
[43] = test system: DU-145
[44] = test system: SF-268
[45] = test system: MDA-MB-231
[46] = test system: MOLT-4
[47] = test system: HOP-62
[48] = test system: KM12
[49] = test system: OVCAR-4
[50] = test system: BT-549
[51] = test system: LOX IMVI
[52] = test system: T47D
[53] = test system: SK-MEL-5
[54] = test system: EKVX
[55] = test system: HOP-92
[56] = test system: SK-MEL-2
[57] = test system: SF-295
[58] = test system: SK-MEL-28
[59] = test system: CCRF-CEM
[60] = test system: LXFL 529

SMILES: O=C(Oc1cccc2cccnc12)c1cc2cc(CCl)ccc2oc1=O
- GI50 [1]: 3.68 µM (inactive)
- GI50 [2]: 43.7 µM (inactive)
- GI50 [3]: 3.1 µM (inactive)
- GI50 [4]: 16.1 µM (inactive)
- GI50 [5]: 4.18 µM (inactive)
- GI50 [6]: 4.56 µM (inactive)
- GI50 [7]: 75.9 µM (inactive)
- GI50 [8]: 3.14 µM (inactive)
- GI50 [9]: 31.5 µM (inactive)
- GI50 [10]: 10.6 µM (inactive)
- GI50 [11]: 6.05 µM (inactive)
- GI50 [12]: 24.3 µM (inactive)
- GI50 [13]: 17.3 µM (inactive)
- GI50 [14]: 10.9 µM (inactive)
- GI50 [15]: 3.22 µM (inactive)
- GI50 [16]: 10.8 µM (inactive)
- GI50 [17]: 29.9 µM (inactive)
- GI50 [18]: 8.57 µM (inactive)
- GI50 [19]: 46.2 µM (inactive)
- GI50 [20]: 34 µM (inactive)
- GI50 [21]: 24.4 µM (inactive)
- GI50 [22]: 27.7 µM (inactive)
- GI50 [23]: 19 µM (inactive)
- GI50 [24]: 9.91 µM (inactive)
- GI50 [25]: 15.7 µM (inactive)
- GI50 [26]: 8.09 µM (inactive)
- GI50 [27]: 5.64 µM (inactive)
- GI50 [28]: 4.94 µM (inactive)
- GI50 [29]: > 100 µM (inactive)
- GI50 [30]: 12.7 µM (inactive)
- GI50 [31]: 20.7 µM (inactive)
- GI50 [32]: 25.5 µM (inactive)
- GI50 [33]: 8.39 µM (inactive)
- GI50 [34]: 6.3 µM (inactive)
- GI50 [35]: 20.3 µM (inactive)
- GI50 [36]: 2.77 µM
- GI50 [37]: 3.4 µM (inactive)
- GI50 [38]: 2.18 µM (inactive)
- GI50 [39]: 18 µM (inactive)
- GI50 [40]: 48.8 µM (inactive)
- GI50 [41]: 4.27 µM (inactive)
- GI50 [42]: 56 µM (inactive)
- GI50 [43]: 20.7 µM (inactive)
- GI50 [44]: 18.5 µM (inactive)
- GI50 [45]: 27.1 µM (inactive)
- GI50 [46]: 2.8 µM (inactive)
- GI50 [47]: 44.3 µM (inactive)
- GI50 [48]: 24 µM (inactive)
- GI50 [49]: 25.6 µM (inactive)
- GI50 [50]: 31.5 µM (inactive)
- GI50 [51]: 25.3 µM (inactive)
- GI50 [52]: 4.29 µM (inactive)
- GI50 [53]: 21.9 µM (inactive)
- GI50 [54]: 2.4 µM (inactive)
- GI50 [55]: 34.2 µM (inactive)
- GI50 [56]: 17.6 µM (inactive)
- GI50 [57]: 37.4 µM (inactive)
- GI50 [58]: 30.1 µM (inactive)
- GI50 [59]: 0.277 µM (active)

SMILES: Cc1ccc2c(n1)C(=O)C=CC2=O
- GI50 [1]: 2.71 µM (inactive)
- GI50 [2]: 18 µM (inactive)
- GI50 [3]: 3.1 µM (inactive)
- GI50 [4]: 7.4 µM (inactive)
- GI50 [5]: 18.1 µM (inactive)
- GI50 [6]: 3 µM (inactive)
- GI50 [7]: 19.6 µM (inactive)
- GI50 [8]: 5.33 µM (inactive)
- GI50 [9]: 18.2 µM (inactive)
- GI50 [10]: 13.4 µM (inactive)
- GI50 [11]: 7.35 µM (inactive)
- GI50 [12]: 17.4 µM (inactive)
- GI50 [13]: 5.93 µM (inactive)
- GI50 [14]: 17.4 µM (inactive)
- GI50 [15]: 0.486 µM (active)
- GI50 [16]: 17.2 µM (inactive)
- GI50 [17]: 2.02 µM (inactive)
- GI50 [18]: 13.7 µM (inactive)
- GI50 [19]: 30.8 µM (inactive)
- GI50 [20]: 15.1 µM (inactive)
- GI50 [21]: 14.7 µM (inactive)
- GI50 [22]: 16.9 µM (inactive)
- GI50 [23]: 2.89 µM (inactive)
- GI50 [24]: 5.46 µM (inactive)
- GI50 [25]: 5.79 µM (inactive)
- GI50 [26]: 13.9 µM (inactive)
- GI50 [27]: 15 µM (inactive)
- GI50 [28]: 2.59 µM (inactive)
- GI50 [29]: 18.3 µM (inactive)
- GI50 [30]: 16.8 µM (inactive)
- GI50 [31]: 5.96 µM (inactive)
- GI50 [32]: 2.52 µM (inactive)
- GI50 [33]: 15.7 µM (inactive)
- GI50 [34]: 2.14 µM (inactive)
- GI50 [35]: 16.3 µM (inactive)
- GI50 [36]: 9.48 µM
- GI50 [37]: 1.97 µM (inactive)
- GI50 [38]: 1.91 µM (inactive)
- GI50 [39]: 16.5 µM (inactive)
- GI50 [40]: 16.8 µM (inactive)
- GI50 [41]: 3.24 µM (inactive)
- GI50 [42]: 19.4 µM (inactive)
- GI50 [43]: 14.8 µM (inactive)
- GI50 [44]: 20.9 µM (inactive)
- GI50 [45]: 4.72 µM (inactive)
- GI50 [46]: 2.61 µM (inactive)
- GI50 [47]: 26.3 µM (inactive)
- GI50 [48]: 21.2 µM (inactive)
- GI50 [49]: 6.87 µM (inactive)
- GI50 [50]: 16.5 µM (inactive)
- GI50 [51]: 4.88 µM (inactive)
- GI50 [52]: 1.88 µM (inactive)
- GI50 [53]: 14.9 µM (inactive)
- GI50 [54]: 7.03 µM (inactive)
- GI50 [55]: 3.9 µM (inactive)
- GI50 [56]: 16.7 µM (inactive)
- GI50 [57]: 18.2 µM (inactive)
- GI50 [58]: 3.56 µM (inactive)
- GI50 [59]: 1.17 µM (inactive)

SMILES: Nc1nc(=S)c2ncn(C3CC(O)C(CO)O3)c2[nH]1 (stereo not drawn)
- GI50 [60]: > 100 µM (inactive)

SMILES: COC(=O)/C=C\C(C#N)(C#N)/N=C/c1ccc(OC)cc1
- GI50 [1]: 2.72 µM (inactive)
- GI50 [2]: > 44.7 µM (inactive)
- GI50 [3]: 3.41 µM (inactive)
- GI50 [4]: 4.75 µM (inactive)
- GI50 [5]: 2.73 µM (inactive)
- GI50 [6]: 1.99 µM (inactive)
- GI50 [7]: 10.8 µM (inactive)
- GI50 [8]: 2.73 µM (inactive)
- GI50 [9]: 21.7 µM (inactive)
- GI50 [10]: 15.3 µM (inactive)
- GI50 [11]: 4.83 µM (inactive)
- GI50 [12]: 17.9 µM (inactive)
- GI50 [13]: 2.19 µM (inactive)
- GI50 [14]: 19.5 µM (inactive)
- GI50 [15]: 1.45 µM (inactive)
- GI50 [16]: 2.33 µM (inactive)
- GI50 [17]: 2.08 µM (inactive)
- GI50 [18]: 15.9 µM (inactive)
- GI50 [19]: 10 µM (inactive)
- GI50 [20]: 2.89 µM (inactive)
- GI50 [21]: 15 µM (inactive)
- GI50 [22]: 19.5 µM (inactive)
- GI50 [23]: 2.82 µM (inactive)
- GI50 [24]: 2.25 µM (inactive)
- GI50 [25]: 1.73 µM (inactive)
- GI50 [26]: 5.31 µM (inactive)
- GI50 [27]: 3.08 µM (inactive)
- GI50 [28]: 0.48 µM (active)
- GI50 [29]: 17.3 µM (inactive)
- GI50 [30]: 7.4 µM (inactive)
- GI50 [31]: 1.99 µM (inactive)
- GI50 [32]: 2.63 µM (inactive)
- GI50 [33]: 8.95 µM (inactive)
- GI50 [34]: 1.65 µM (inactive)
- GI50 [35]: 20.6 µM (inactive)
- GI50 [36]: 3.85 µM
- GI50 [37]: 1.84 µM (inactive)
- GI50 [38]: 0.615 µM (active)
- GI50 [39]: 4.99 µM (inactive)
- GI50 [40]: 18.5 µM (inactive)
- GI50 [41]: 0.681 µM (active)
- GI50 [42]: 16.4 µM (inactive)
- GI50 [43]: 7.01 µM (inactive)
- GI50 [44]: 4.94 µM (inactive)
- GI50 [45]: 18 µM (inactive)
- GI50 [46]: 1.06 µM (active)
- GI50 [47]: 17.7 µM (inactive)
- GI50 [48]: 16.7 µM (inactive)
- GI50 [49]: 1.92 µM (inactive)
- GI50 [50]: 5.04 µM (inactive)
- GI50 [51]: 3.12 µM (inactive)
- GI50 [52]: 1.54 µM (inactive)
- GI50 [53]: 17.8 µM (inactive)
- GI50 [54]: 16.6 µM (inactive)
- GI50 [55]: 1.92 µM (inactive)
- GI50 [56]: 18.3 µM (inactive)
- GI50 [57]: 25.1 µM (inactive)
- GI50 [58]: 2.7 µM (inactive)
- GI50 [59]: 0.162 µM (active)
